In patent US20240116985A1, “STAPLED PEPTIDES AND METHODS THEREOF” (priority 2020, published 2024):
pIC50: −log10 of the molar value.

Assays:
[1] = target: T1, beta-catenin/TCF4 engagement (Homo sapiens, UniProt P35222); test: Nano-BRET target engagement assay (B-cat-Halo & TCF4-Luc in HEK293 cells); type: cell-based; conditions: absolute IC50; read-out: NanoBRET Abs IC50
T1 construct: expressed in transfected cells; host or cells: HEK293
T1 sequence (P35222 1-781): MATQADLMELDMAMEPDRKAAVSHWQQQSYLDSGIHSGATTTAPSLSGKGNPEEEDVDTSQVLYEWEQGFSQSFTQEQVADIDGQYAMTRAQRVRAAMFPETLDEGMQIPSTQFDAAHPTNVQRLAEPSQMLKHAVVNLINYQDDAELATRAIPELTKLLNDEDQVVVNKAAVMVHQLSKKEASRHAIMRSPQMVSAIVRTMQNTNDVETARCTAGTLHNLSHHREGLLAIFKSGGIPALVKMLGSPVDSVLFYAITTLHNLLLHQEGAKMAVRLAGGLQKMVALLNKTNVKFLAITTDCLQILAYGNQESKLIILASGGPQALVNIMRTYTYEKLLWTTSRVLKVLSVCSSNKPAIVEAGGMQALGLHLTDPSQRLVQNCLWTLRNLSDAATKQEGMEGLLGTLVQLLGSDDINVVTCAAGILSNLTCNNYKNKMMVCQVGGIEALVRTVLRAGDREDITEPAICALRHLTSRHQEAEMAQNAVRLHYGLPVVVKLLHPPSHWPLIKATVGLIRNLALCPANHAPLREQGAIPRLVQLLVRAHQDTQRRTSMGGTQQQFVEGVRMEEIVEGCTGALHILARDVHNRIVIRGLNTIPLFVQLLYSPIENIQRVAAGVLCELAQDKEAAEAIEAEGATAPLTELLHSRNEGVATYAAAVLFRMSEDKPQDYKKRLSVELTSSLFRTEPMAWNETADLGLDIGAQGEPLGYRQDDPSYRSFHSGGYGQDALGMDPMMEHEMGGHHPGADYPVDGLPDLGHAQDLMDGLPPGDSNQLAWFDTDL

[2] = target: T2, full-length beta-Catenin (Uniprot ID P35222) (Homo sapiens, UniProt P35222); test: Fluorescence polarization IC50 (beta-catenin / 5FAM-TCF4 10-53 competition); type: binding; conditions: fluorescence polarization; read-out: beta-Catenin FP IC50
T2 construct: 10 nM full-length beta-Catenin (Uniprot ID P35222)
T2 sequence (P35222 1-781): T1 sequence (P35222 1-781)

pIC50 [1]	pIC50 [2]	Structure (SMILES)
5.30	8.30	CC(=O)N1CCC[C@]12CC=CCCCC1(CCCC=CCCCOC(=O)N3CC[C@@](C(=O)N[C@@H](Cc4ccccc4C(F)(F)F)C(=O)N[C@@H](Cc4csc5ccccc45)C(=O)N[C@@H](CO)C(N)=O)(C3)NC(=O)[C@H](CC(C)C)NC(=O)[C@H](Cc3ccccc3)NC(=O)[C@H](C)NC(=O)[C@H](C)NC(=O)[C@H](Cn3cc(CCC(=O)O)nn3)NC(=O)[C@H](CC(=O)O)NC1=O)NC(=O)[C@H](CC(C)(C)C)NC(=O)[C@H](CC(=O)O)NC2=O (stereo partly drawn) [I-2371, Ac-PL3-Asp-Npg-B5-Asp-[CH2CH2CO2H]TriAzDap-Ala-Ala-Phe-Leu-PyrS2-2F3MeF-BztA-Ser-NH2]
5.15	6.92	CC(=O)N1CCC[C@]12CC=CCCCC1(CCCC=CCCCOC(=O)N3CC[C@@](C(=O)N[C@@H](Cc4ccccc4C(F)(F)F)C(=O)N[C@@H](Cc4csc5ccccc45)C(=O)N[C@@H](CCC(N)=O)C(=O)N[C@@H](CC(C)C)C(=O)NC4(C(N)=O)CCCC4)(C3)NC(=O)[C@H](CC(C)C)NC(=O)[C@H](Cc3ccccc3)NC(=O)[C@H](C)NC(=O)[C@H](C)NC(=O)[C@H](Cc3cccc(C(=O)O)c3)NC(=O)[C@H](CC(=O)O)NC1=O)NC(=O)[C@H](CC(C)(C)C)NC(=O)[C@H](CC(=O)O)NC2=O (stereo partly drawn) [I-2387, Ac-PL3-Asp-Npg-B5-Asp-3COOHF-Ala-Ala-Phe-Leu-PyrS2-2F3MeF-BztA-Gln-Leu-CyLeu-NH2]
< 4.70	7.80	C#CC(=O)N1CCC[C@]12CC=CCCCC1(CCCC=CCCCOC(=O)N3CC[C@@](C(=O)N[C@@H](Cc4ccsc4)C(=O)N[C@@H](Cc4csc5ccccc45)C(=O)N[C@@H](Cc4c[nH]cn4)C(N)=O)(C3)NC(=O)[C@H](CCC(N)=O)NC(=O)[C@H](Cc3ccccc3)NC(=O)[C@H](C)NC(=O)[C@H](C)NC(=O)[C@H](CC(=O)O)NC(=O)[C@H](CC(=O)O)NC1=O)NC(=O)[C@H](CC(C)(C)C)NC(=O)[C@H](CC(=O)O)NC2=O (stereo partly drawn) [I-2402, PropynOH-PL3-Asp-Npg-B5-Asp-Asp-Ala-Ala-Phe-Gln-PyrS2-3Thi-BztA-His-NH2]
< 4.70	7.92	C#CC(=O)N1CCC[C@]12CC=CCCCC1(CCCC=CCCCOC(=O)N3CC[C@@](C(=O)N[C@@H](Cc4ccccc4Cl)C(=O)N[C@@H](Cc4csc5ccccc45)C(=O)N[C@@H](C)C(N)=O)(C3)NC(=O)[C@H](CC(C)C)NC(=O)[C@H](Cc3ccccc3)NC(=O)[C@H](C)NC(=O)[C@H](C)NC(=O)[C@H](Cc3cccc(C(=O)O)c3)NC(=O)[C@H](CC(=O)O)NC1=O)NC(=O)[C@H](CC(C)(C)C)NC(=O)[C@H](CC(=O)O)NC2=O (stereo partly drawn) [I-2403, PropynOH-PL3-Asp-Npg-B5-Asp-3COOHF-Ala-Ala-Phe-Leu-PyrS2-2C1F-BztA-Ala-NH2]

Second part, the compound before the results:

Structure (SMILES)	pIC50 [1]	pIC50 [2]
CC(=O)N1CCC[C@]12CC=CCCCC1(CCCC=CCCCOC(=O)N3CC[C@@](C(=O)N[C@@H](Cc4ccccc4C(F)(F)F)C(=O)N[C@@H](Cc4csc5ccccc45)C(=O)N[C@@H](CO)C(N)=O)(C3)NC(=O)[C@H](CC(C)C)NC(=O)[C@H](Cc3ccccc3)NC(=O)[C@H](C)NC(=O)[C@H](C)NC(=O)[C@H](Cn3cc(CC(=O)O)nn3)NC(=O)[C@H](CC(=O)O)NC1=O)NC(=O)[C@H](CC(C)(C)C)NC(=O)[C@H](CC(=O)O)NC2=O (stereo partly drawn) [I-2373, Ac-PL3-Asp-Npg-B5-Asp-[CH2CO2H]TriAzDap-Ala-Ala-Phe-Leu-PyrS2-2F3MeF-BztA-Ser-NH2]	5.40	8.30
CCCc1cn(CCCC[C@H](NC(=O)[C@H](Cc2csc3ccccc23)NC(=O)[C@H](Cc2ccsc2)NC(=O)[C@]23CCN(C2)C(=O)OCCCC=CCCCC2(CCCC=CC[C@]4(CCCN4C(C)=O)C(=O)N[C@@H](CC(=O)O)C(=O)N[C@@H](CC(C)(C)C)C(=O)N2)C(=O)N[C@@H](CC(=O)O)C(=O)N[C@@H](CC(=O)O)C(=O)N[C@@H](C)C(=O)N[C@@H](C)C(=O)N[C@@H](Cc2ccccc2)C(=O)N[C@@H](CC(C)C)C(=O)N3)C(N)=O)nn1 (stereo partly drawn) [I-2375, Ac-PL3-Asp-Npg-B5-Asp-Asp-Ala-Ala-Phe-Leu-PyrS2-3Thi-BztA-[3C]TriAzLys-NH2]	4.87	8.30
CC(=O)N1CCC[C@]12CC=CCCCC1(CCCC=CCCCOC(=O)N3CC[C@@](C(=O)N[C@@H](Cc4ccccc4C(F)(F)F)C(=O)N[C@@H](Cc4csc5ccccc45)C(=O)N[C@@H](CCC(N)=O)C(=O)N[C@@H](CC(C)C)C(=O)N[C@H](C(N)=O)C(C)C)(C3)NC(=O)[C@H](CC(C)C)NC(=O)[C@H](Cc3ccccc3)NC(=O)[C@H](C)NC(=O)[C@H](C)NC(=O)[C@H](Cc3cccc(C(=O)O)c3)NC(=O)[C@H](CC(=O)O)NC1=O)NC(=O)[C@H](CC(C)(C)C)NC(=O)[C@H](CC(=O)O)NC2=O (stereo partly drawn) [I-2379, Ac-PL3-Asp-Npg-B5-Asp-3COOHF-Ala-Ala-Phe-Leu-PyrS2-2F3MeF-BztA-Gln-Leu-Val-NH2]	5.30	6.61
CC(=O)N1CCC[C@]12CC=CCCCC1(CCCC=CCCCOC(=O)N3CC[C@@](C(=O)N[C@@H](Cc4ccccc4C(F)(F)F)C(=O)N[C@@H](Cc4csc5ccccc45)C(=O)N[C@@H](CCC(N)=O)C(=O)N[C@@H](CC(C)C)C(=O)N[C@@H](Cc4ccc(O)cc4)C(N)=O)(C3)NC(=O)[C@H](CC(C)C)NC(=O)[C@H](Cc3ccccc3)NC(=O)[C@H](C)NC(=O)[C@H](C)NC(=O)[C@H](Cc3cccc(C(=O)O)c3)NC(=O)[C@H](CC(=O)O)NC1=O)NC(=O)[C@H](CC(C)(C)C)NC(=O)[C@H](CC(=O)O)NC2=O (stereo partly drawn) [I-2392, Ac-PL3-Asp-Npg-B5-Asp-3COOHF-Ala-Ala-Phe-Leu-PyrS2-2F3MeF-BztA-Gln-Leu-Tyr-NH2]	5.07	6.34
CC(=O)N1CCC[C@]12CC=CCCCC1(CCCC=CCCCOC(=O)N3CC[C@@](C(=O)N[C@@H](Cc4ccccc4C(F)(F)F)C(=O)N[C@@H](Cc4csc5ccccc45)C(=O)N[C@@H](CCC(N)=O)C(=O)N[C@@H](CC(C)C)C(=O)N[C@H](CC(C)C)C(N)=O)(C3)NC(=O)[C@H](CC(C)C)NC(=O)[C@H](Cc3ccccc3)NC(=O)[C@H](C)NC(=O)[C@H](C)NC(=O)[C@H](Cc3cccc(C(=O)O)c3)NC(=O)[C@H](CC(=O)O)NC1=O)NC(=O)[C@H](CC(C)(C)C)NC(=O)[C@H](CC(=O)O)NC2=O (stereo partly drawn) [I-2396, Ac-PL3-Asp-Npg-B5-Asp-3COOHF-Ala-Ala-Phe-Leu-PyrS2-2F3MeF-BztA-Gln-Leu-dLeu-NH2]	5.08	6.73
CC(=O)N1CCC[C@]12CC=CCCCC1(CCCC=CCCCOC(=O)N3CC[C@@](C(=O)N[C@@H](Cc4ccccc4C(F)(F)F)C(=O)N[C@@H](Cc4csc5ccccc45)C(=O)N[C@@H](CCC(N)=O)C(=O)N[C@@H](CC(C)C)C(=O)N[C@@H](C(N)=O)[C@H](C)O)(C3)NC(=O)[C@H](CC(C)C)NC(=O)[C@H](Cc3ccccc3)NC(=O)[C@H](C)NC(=O)[C@H](C)NC(=O)[C@H](Cc3cccc(C(=O)O)c3)NC(=O)[C@H](CC(=O)O)NC1=O)NC(=O)[C@H](CC(C)(C)C)NC(=O)[C@H](CC(=O)O)NC2=O (stereo partly drawn) [I-2397, Ac-PL3-Asp-Npg-B5-Asp-3COOHF-Ala-Ala-Phe-Leu-PyrS2-2F3MeF-BztA-Gln-Leu-dThr-NH2]	5.11	7.28
